Source: PubChem BioAssay AID212 (DTP/NCI, 2004)
Where “and” joins values, the source holds several entries; their conditions need not be identical. Equal entries are not always repeated. Records with an inconclusive call do not appear.

Test system: BDF1 mice, colon carcinoma 38 sc, T/C %
Assay: NCI In Vivo Anticancer Drug Screen. Data for tumor model Colon Carcinoma 38 (subcutaneous) in B6D2F1 (BDF1) mice
Details: endpoint: median tumor weight (est.), higher = larger tumour
How it was run: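 Mice with transplanted tumors are treated with compound or vehicle. Survival or tumor size is then measured in both groups. The ratio of treated to control gives the reported figure.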

[1] = dose: 2.0 mg/kg/injection, schedule: Q07DX002 (ip), vehicle: Klucel (hydroxypropylcellulose) (HPC)
[2] = dose: 4.0 mg/kg/injection, schedule: Q07DX003 (ip), vehicle: Klucel (hydroxypropylcellulose) (HPC)
[3] = dose: 8.0 mg/kg/injection, schedule: Q07DX003 (ip), vehicle: Klucel (hydroxypropylcellulose) (HPC)
[4] = dose: 25.0 mg/kg/injection, schedule: Q07DX002 (ip), vehicle: saline
[5] = dose: 12.5 mg/kg/injection, schedule: Q07DX002 (ip), vehicle: saline
[6] = dose: 100.0 mg/kg/injection, schedule: Q07DX002 (ip), vehicle: saline
[7] = dose: 200.0 mg/kg/injection, schedule: Q07DX002 (ip), vehicle: saline

## COc1c(CNC(=O)CCl)cc2[nH]c(C)cc2c1CNC(=O)CCl
dose: 12.5 mg/kg/injection, schedule: Q07DX002 (ip), vehicle: Klucel (hydroxypropylcellulose) (HPC)
  T/C: 101 % of control
dose: 50.0 mg/kg/injection, schedule: Q07DX002 (ip), vehicle: Klucel (hydroxypropylcellulose) (HPC)
  T/C: 98 % of control
dose: 100.0 mg/kg/injection, schedule: Q07DX002 (ip), vehicle: Klucel (hydroxypropylcellulose) (HPC)
  T/C: 93 % of control
dose: 200.0 mg/kg/injection, schedule: Q07DX002 (ip), vehicle: Klucel (hydroxypropylcellulose) (HPC)
  T/C: 83 % of control
dose: 400.0 mg/kg/injection, schedule: Q07DX002 (ip), vehicle: Klucel (hydroxypropylcellulose) (HPC)
  T/C: 111 % of control

## CC1=CC2OC3C(OC(=O)c4ccccc4)C(OC(=O)c4ccccc4)C(C)(C2(COC(=O)c2ccccc2)CC1)C31CO1 (stereo not given)
dose: 3.0 mg/kg/injection, schedule: Q07DX002 (ip), vehicle: saline with Tween-80
  T/C: 166 % of control
dose: 6.0 mg/kg/injection, schedule: Q07DX003 (ip), vehicle: saline with Tween-80
  T/C: 152 % of control
dose: 12.0 mg/kg/injection, schedule: Q07DX003 (ip), vehicle: saline with Tween-80
  T/C: 184 % of control

## NC(=O)c1cn(C2OC(CO)C(O)C2O)c2ncnc(N)c12 (stereo not given)
dose: 0.5 mg/kg/injection, schedule: Q07DX002 (ip), vehicle: suspension in saline
  T/C: 55 % of control
dose: 1.0 mg/kg/injection, schedule: Q07DX002 (ip), vehicle: suspension in saline
  T/C: 84 % of control
dose: 2.0 mg/kg/injection, schedule: Q07DX002 (ip), vehicle: saline with Tween-80
  T/C: 73 % of control
dose: 2.0 mg/kg/injection, schedule: Q07DX002 (ip), vehicle: suspension in saline
  T/C: 56 % of control and 62 % of control
dose: 4.0 mg/kg/injection, schedule: Q07DX002 (ip), vehicle: saline with Tween-80
  T/C: 79 % of control
dose: 4.0 mg/kg/injection, schedule: Q07DX002 (ip), vehicle: suspension in saline
  T/C: 48 % of control and 73 % of control
dose: 8.0 mg/kg/injection, schedule: Q07DX002 (ip), vehicle: suspension in saline
  T/C: 38 % of control

## CC1C2CCC3C(O)C2(CC(O)C2(O)C1CC(O)C2(C)C)CC3(C)O (stereo not given)
dose: 0.5 mg/kg/injection, schedule: Q07DX002 (ip), vehicle: Klucel (hydroxypropylcellulose) (HPC)
  T/C: 103 % of control
[1]
  T/C: 181 % of control

## N/C(=N\O)c1cn(C2OC(CO)C(O)C2O)c2ncnc(N)c12 (stereo not given)
dose: 1.0 mg/kg/injection, schedule: Q07DX002 (ip), vehicle: Klucel (hydroxypropylcellulose) (HPC)
  T/C: 72 % of control
[1]
  T/C: 82 % of control
dose: 4.0 mg/kg/injection, schedule: Q07DX002 (ip), vehicle: Klucel (hydroxypropylcellulose) (HPC)
  T/C: 79 % of control
[2]
  T/C: 6 % of control
dose: 8.0 mg/kg/injection, schedule: Q07DX002 (ip), vehicle: Klucel (hydroxypropylcellulose) (HPC)
  T/C: 91 % of control
[3]
  T/C: 17 % of control
dose: 16.0 mg/kg/injection, schedule: Q07DX002 (ip), vehicle: Klucel (hydroxypropylcellulose) (HPC)
  T/C: 93 % of control
dose: 16.0 mg/kg/injection, schedule: Q07DX003 (ip), vehicle: Klucel (hydroxypropylcellulose) (HPC)
  T/C: 7 % of control

## C/C=C/c1cc2c(c(=O)o1)C(=O)[C@@H](O)[C@H](C)O2
dose: 12.5 mg/kg/injection, schedule: Q07DX002 (ip), vehicle: saline with Tween-80
  T/C: 73 % of control and 95 % of control
dose: 25.0 mg/kg/injection, schedule: Q07DX002 (ip), vehicle: saline with Tween-80
  T/C: 61 % of control and 80 % of control
dose: 50.0 mg/kg/injection, schedule: Q07DX002 (ip), vehicle: saline with Tween-80
  T/C: 72 % of control and 76 % of control
dose: 200.0 mg/kg/injection, schedule: Q07DX002 (ip), vehicle: saline with Tween-80
  T/C: 71 % of control and 86 % of control

## Cc1c2c(ccc3ccccc32)c[n+]2ccccc12
dose: 3.12 mg/kg/injection, schedule: Q07DX002 (ip), vehicle: saline
  T/C: 154 % of control
dose: 6.25 mg/kg/injection, schedule: Q07DX002 (ip), vehicle: saline
  T/C: 118 % of control
dose: 12.5 mg/kg/injection, schedule: Q07DX002 (ip), vehicle: suspension in saline
  T/C: 102 % of control
[4]
  T/C: 107 % of control
dose: 25.0 mg/kg/injection, schedule: Q07DX002 (ip), vehicle: suspension in saline
  T/C: 91 % of control

## Cc1c(N)nc([C@H](CC(N)=O)NC[C@H](N)C(N)=O)nc1C(=O)N[C@H](C(=O)N[C@H](C)[C@@H](O)[C@H](C)C(=O)N[C@H](C(=O)NCCc1nc(-c2nc(C(=O)NCCC[S+](C)C)cs2)cs1)[C@@H](C)O)C(OC1OC(CO)C(O)C(O)C1OC1OC(CO)C(O)C(OC(N)=O)C1O)c1cnc[nH]1 (stereo not given in full)
dose: 3.0 mg/kg/injection, schedule: Q07DX003 (ip), vehicle: saline
  T/C: 62 % of control
dose: 6.0 mg/kg/injection, schedule: Q07DX003 (ip), vehicle: saline
  T/C: 88 % of control
dose: 12.0 mg/kg/injection, schedule: Q07DX003 (ip), vehicle: saline
  T/C: 63 % of control
dose: 24.0 mg/kg/injection, schedule: Q07DX003 (ip), vehicle: saline
  T/C: 85 % of control
dose: 48.0 mg/kg/injection, schedule: Q07DX003 (ip), vehicle: saline
  T/C: 60 % of control

## Cc1cc(NCCN(C(C)C)C(C)C)nc(/N=C(\N)Nc2ccc(Cl)c(C(F)(F)F)c2)n1
dose: 2.5 mg/kg/injection, schedule: Q07DX002 (ip), vehicle: Klucel (hydroxypropylcellulose) (HPC)
  T/C: 89 % of control
dose: 10.0 mg/kg/injection, schedule: Q07DX002 (ip), vehicle: Klucel (hydroxypropylcellulose) (HPC)
  T/C: 82 % of control
dose: 20.0 mg/kg/injection, schedule: Q07DX002 (ip), vehicle: Klucel (hydroxypropylcellulose) (HPC)
  T/C: 95 % of control
dose: 40.0 mg/kg/injection, schedule: Q07DX002 (ip), vehicle: Klucel (hydroxypropylcellulose) (HPC)
  T/C: 67 % of control

## Cc1cc(NCCCCCCCNc2cc(C)nc3cc(N)ccc23)c2ccc(N)cc2n1
dose: 1.56 mg/kg/injection, schedule: Q07DX002 (ip), vehicle: saline with Tween-80
  T/C: 78 % of control

## C=CCOCC1CO1 (stereo not given)
[5]
  T/C: 66 % of control
[6]
  T/C: 85 % of control
[7]
  T/C: 122 % of control

## Brc1ccc(C[N+]23CN4CN(CN(C4)C2)C3)cc1
dose: 12.5 mg/kg/injection, schedule: Q07DX003 (ip), vehicle: saline with Tween-80
  T/C: 121 % of control
dose: 25.0 mg/kg/injection, schedule: Q07DX003 (ip), vehicle: saline with Tween-80
  T/C: 79 % of control
dose: 50.0 mg/kg/injection, schedule: Q07DX003 (ip), vehicle: saline with Tween-80
  T/C: 108 % of control
dose: 100.0 mg/kg/injection, schedule: Q07DX003 (ip), vehicle: saline with Tween-80
  T/C: 95 % of control
dose: 200.0 mg/kg/injection, schedule: Q07DX003 (ip), vehicle: saline with Tween-80
  T/C: 62 % of control

## OCC1OC(n2cnc3c(Cl)ncnc32)C(O)C1O (stereo not given)
dose: 1600.0 mg/kg/injection, schedule: Q07DX002 (ip), vehicle: saline
  T/C: 82 % of control

## CC[C@]1(O)C[C@H](OC2CC(N(C)C)C(OC3CC(O)C(O)C(C)O3)C(C)O2)c2c(cc3c(c2O)C(=O)c2c(O)ccc(O)c2C3=O)[C@H]1C(=O)OC (stereo not given in full)
dose: 0.38 mg/kg/injection, schedule: Q07DX003 (ip), vehicle: Klucel (hydroxypropylcellulose) (HPC)
  T/C: 109 % of control
dose: 0.5 mg/kg/injection, schedule: Q07DX003 (ip), vehicle: Klucel (hydroxypropylcellulose) (HPC)
  T/C: 45 % of control
dose: 0.75 mg/kg/injection, schedule: Q07DX003 (ip), vehicle: Klucel (hydroxypropylcellulose) (HPC)
  T/C: 62 % of control
dose: 1.0 mg/kg/injection, schedule: Q07DX003 (ip), vehicle: Klucel (hydroxypropylcellulose) (HPC)
  T/C: 25 % of control
dose: 1.5 mg/kg/injection, schedule: Q07DX003 (ip), vehicle: Klucel (hydroxypropylcellulose) (HPC)
  T/C: 66 % of control
dose: 3.0 mg/kg/injection, schedule: Q07DX003 (ip), vehicle: Klucel (hydroxypropylcellulose) (HPC)
  T/C: 73 % of control
[2]
  T/C: 35 % of control
dose: 6.0 mg/kg/injection, schedule: Q07DX003 (ip), vehicle: Klucel (hydroxypropylcellulose) (HPC)
  T/C: 79 % of control
[3]
  T/C: 21 % of control

## CN(C)c1ncnc2c1ncn2C1OC(CO)C(N)C1O (stereo not given)
[5]
  T/C: 110 % of control
[4]
  T/C: 85 % of control
dose: 50.0 mg/kg/injection, schedule: Q07DX002 (ip), vehicle: saline
  T/C: 105 % of control
[6]
  T/C: 106 % of control
[7]
  T/C: 63 % of control

## CN(C)CCN(C)CC(C)(C)C(=O)/C=C/c1ccccc1
dose: 31.25 mg/kg/injection, schedule: Q07DX002 (ip), vehicle: saline
  T/C: 119 % of control
dose: 62.5 mg/kg/injection, schedule: Q07DX002 (ip), vehicle: saline
  T/C: 11 % of control
dose: 125.0 mg/kg/injection, schedule: Q07DX002 (ip), vehicle: saline
  T/C: 52 % of control
